The values below are quoted from earlier work in patent publication US9687472B2, “Use of antioxidants as an adjuvant to immune stimulators to augment tumor immunity and prevent toxicity associated with oxidative stress” (BATU BIOLOGICS, priority 2014, dated 2017).

Data set [1] has as its system endothelial cell. The settings on record: in vitro.
The subject of data set [2] is circulating apoptotic endothelial cells. Particulars: 2.5 g intravenously and 3 days of 4 g per day oral.
In data set [3] the test system is human umbilical vein endothelial (HUVEC) cells. Particulars: in response to TNF-alpha, in vitro.
For data set [4] the following is noted: 10 mg/kg intravenously before induction of sepsis.
The conditions of data set [5]: i.v. 66 mg/kg/hr for 24 hours.
Data set [6] concerns human endothelial cells. The settings on record: hypoxic (24 hours; 1% O(2))/reoxygenated (3 hours; 21% O(2)) cells.
In data set [7] the test system is complement system. The settings on record: patients.

In the case of `O=C1O[C@H]([C@@H](O)CO)C(O)=C1O` [AA, ascorbic acid], the “TNF-alpha induced endothelial cell apoptosis” value in data set [1] is “reduction”. In data set [2], the “circulating apoptotic endothelial cells” value was “reduction”. Further, the “endothelial cell expression of ICAM-1” value in data set [3] is reported as “reduce”. Besides, the survival in data set [4] was 50%. For the same molecule, in data set [5], the “24 hr total fluid infusion volume” value is on record as “statistically significant reductions”, the “fluid retention (indicative of vascular leakage)” value is given as “statistically significant reductions” and the “need for mechanical ventilation” value was 12.1 ± 8.8 days.
On to `O=C[C@@H](O)[C@@H](O)[C@H](O)[C@H](O)CO` [D-mannose], for which the “complement activation (iC3b deposition)” value in data set [6] is listed as “blocked activation”.
As for `O=C[C@H](O)[C@H](O)[C@@H](O)[C@@H](O)CO` [L-mannose], the “complement activation (iC3b deposition)” value in data set [6] is listed as “not”.
With `CC(=O)N[C@H]1C(O)O[C@H](CO)[C@@H](O)[C@@H]1O` (stereo partly drawn) [N-acetyl-D-glucosamine], the “complement activation (iC3b deposition)” value in data set [6] is “blocked activation”.

B1: C1 esterase inhibitor: complement inhibitor (protein, UniProt P05155 23-500, looked up)
Plasma protease C1 inhibitor: NPNATSSSSQDPESLQDRGEGKVATTVISKMLFVEPILEVSSLPTTNSTTNSATKITANTTDEPTTQPTTEPTTQPTIQPTQPTTQLPTDSPTQPTTGSFCPGPVTLCSDLESHSTEAVLGDALVDFSLKLYHAFSAMKKVETNMAFSPFSIASLLTQVLLGAGENTKTNLESILSYPKDFTCVHQALKGFTTKGVTSVSQIFHSPDLAIRDTFVNASRTLYSSSPRVLSNNSDANLELINTWVAKNTNNKISRLLDSLPSDTRLVLLNAIYLSAKWKTTFDPKKTRMEPFHFKNSVIKVPMMNSKKYPVAHFIDQTLKAKVGQLQLSHNLSLVILVPQNLKHRLEDMEQALSPSVFKAIMEKLEMSKFQPTLLTLPRIKVTTSQDMLSIMEKLEFFDFSYDLNLCGLTEDPDLQVSAMQHQTVLELTETGVEAAAASAISVARTLLVFEVQQPFLFVLWDQQHKFPVFMGRVYDPRA
Turning to B1, in data set [7], the “IL-2 induced hypotension and complement activation” value was “capable of reducing”.
